# Assays:
# Assay type in all cases: functional
# Staphylococcus aureus [1] = assay: Antibacterial activity against Staphylococcus aureus UC-76 assessed as growth inhibition
# Shigella sonnei = assay: Antibacterial activity against Shigella sonnei C-10 assessed as growth inhibition
# Plasmodium berghei [2] = assay: Antimalarial activity against trophozoite-induced Plasmodium berghei infected in mouse assessed as change in mean survival time at 1.25 mg/kg, sc single dose after 72 hrs of infection; settings: route subcutaneous
# Escherichia coli = assay: Antibacterial activity against Escherichia coli Vogel assessed as growth inhibition
# Plasmodium berghei [3] = assay: Antimalarial activity against trophozoite-induced Plasmodium berghei infected in mouse assessed as change in mean survival time at 40 mg/kg, sc single dose after 72 hrs of infection; settings: route subcutaneous
# Plasmodium berghei [4] = assay: Antimalarial activity against trophozoite-induced Plasmodium berghei infected in mouse assessed as change in mean survival time at 80 mg/kg, sc single dose after 72 hrs of infection; settings: route subcutaneous
# Staphylococcus aureus [5] = assay: Antibacterial activity against Staphylococcus aureus S18713 assessed as growth inhibition
# Plasmodium berghei [6] = assay: Antimalarial activity against trophozoite-induced Plasmodium berghei infected in mouse assessed as change in mean survival time at 2.5 mg/kg, sc single dose after 72 hrs of infection; settings: route subcutaneous
# Plasmodium berghei [7] = assay: Antimalarial activity against trophozoite-induced Plasmodium berghei infected in mouse assessed as change in mean survival time at 20 mg/kg, sc single dose after 72 hrs of infection; settings: route subcutaneous
# Enterococcus faecalis = assay: Antibacterial activity against Streptococcus faecalis MGH-2 assessed as growth inhibition
# Plasmodium berghei [8] = assay: Antimalarial activity against trophozoite-induced Plasmodium berghei infected in mouse assessed as change in mean survival time at 10 mg/kg, sc single dose after 72 hrs of infection; settings: route subcutaneous
# Plasmodium berghei [9] = assay: Antimalarial activity against trophozoite-induced Plasmodium berghei infected in mouse assessed as change in mean survival time at 5 mg/kg, sc single dose after 72 hrs of infection; settings: route subcutaneous
# Plasmodium berghei [10] = assay: Antimalarial activity against trophozoite-induced Plasmodium berghei infected in sc dosed mouse assessed as minimum curative dose
# Pseudomonas aeruginosa = assay: Antibacterial activity against Pseudomonas aeruginosa 28 assessed as growth inhibition
# Plasmodium gallinaceum [11] = assay: Antimalarial activity against cycloguanil-resistant Plasmodium gallinaceum infected in mouse assessed as dose required to suppress parasitemia by 90% compound treated through gavage for 3 days
# Plasmodium gallinaceum [12] = assay: Antimalarial activity against cycloguanil-resistant Plasmodium gallinaceum infected in mouse assessed as dose required to suppress parasitemia by 90% compound treated through gavage for 3 days relative to parent strain
# [13] = test system: Mycobacterium tuberculosis; assay: Antibacterial activity against Mycobacterium tuberculosis H37Rv assessed as growth inhibition
# Plasmodium falciparum [14] = assay: Antimalarial activity against chloroquine-sensitive, pyrimethamine-resistant Plasmodium falciparum Malayan Camp CH/Q infected in Aotus monkey assessed as dose required to >50% cures compound treated for 7 days
# Plasmodium falciparum [15] = assay: Antimalarial activity against chloroquine-resistant, pyrimethamine-sensitive Plasmodium falciparum Vietnam Oak Knoll in Aotus monkey assessed as dose required to >50% cures compound treated for 7 days
# Plasmodium berghei [16] = assay: Antimalarial activity against trophozoite-induced Plasmodium berghei infected in mouse assessed as change in mean survival time at 320 mg/kg, sc single dose after 72 hrs of infection; settings: route subcutaneous
# Plasmodium berghei [17] = assay: Antimalarial activity against trophozoite-induced Plasmodium berghei infected in mouse assessed as change in mean survival time at 160 mg/kg, sc single dose after 72 hrs of infection; settings: route subcutaneous
SMILES,MIC (Staphylococcus aureus [1]),MIC (Shigella sonnei),MIC (Escherichia coli),MST (Plasmodium berghei [3]),MST (Plasmodium berghei [4]),MIC (Staphylococcus aureus [5]),MST (Plasmodium berghei [6]),MST (Plasmodium berghei [7]),MIC (Enterococcus faecalis),MST (Plasmodium berghei [8]),MST (Plasmodium berghei [9]),MCD (Plasmodium berghei [10]),MIC (Pseudomonas aeruginosa),MIC [13],also measured
Nc1nc(N)c2cc([S+]([O-])c3cccc(-c4ccccc4)c3)ccc2n1 (stereo unspecified),< 0.25 µg/mL,> 25 µg/mL,> 25 µg/mL,18.9 days,22.9 days,< 0.25 µg/mL,1.1 days,11.1 days,< 0.25 µg/mL,6.7 days,4.1 days,40 mg/kg,> 25 µg/mL,,MST (Plasmodium berghei [2]): 0.5 days
Nc1nc(N)c2cc(S(=O)(=O)c3ccc(Br)cc3)ccc2n1,< 0.25 µg/mL,> 25 µg/mL,2.5 µg/mL,,,< 0.25 µg/mL,6.5 days,9.9 days,< 0.25 µg/mL,13.1 days,10.3 days,10 mg/kg,> 25 µg/mL,,Activity (Plasmodium gallinaceum [11]): <1.6 mg/kg; fold change (FC) (Plasmodium gallinaceum [12]): <3
Nc1nc(N)c2c(Cl)c([S+]([O-])c3ccc4ccccc4c3)ccc2n1 (stereo unspecified),> 25 µg/mL,> 25 µg/mL,> 25 µg/mL,23.9 days,,> 25 µg/mL,,9.3 days,< 0.25 µg/mL,,,5 mg/kg,> 25 µg/mL,> 25 µg/mL,
Nc1nc(N)c2cc(Sc3cccc(C(F)(F)F)c3)ccc2n1 [WR-159412],,,,,,,,,,,,,,,Activity (Plasmodium falciparum [14]): 0.39 mg/kg; Activity (Plasmodium falciparum [15]): 0.098 mg/kg
Nc1nc(N)c2cc(Sc3ccc(Cl)c(Cl)c3)ccc2n1,,,,,,,,,,,,,,,Activity (Plasmodium gallinaceum [11]): <0.4 mg/kg; fold change (FC) (Plasmodium gallinaceum [12]): 0
Nc1nc(N)c2cc(Sc3ccc(Br)cc3)ccc2n1,,,,,,,,,,,,,,,Activity (Plasmodium gallinaceum [11]): <1.6 mg/kg; fold change (FC) (Plasmodium gallinaceum [12]): <4
Nc1nc(N)c2cc([S+]([O-])c3ccc(Br)cc3)ccc2n1 (stereo unspecified),< 0.25 µg/mL,> 25 µg/mL,2.5 µg/mL,20.9 days,,< 0.25 µg/mL,3.3 days,13.6 days,< 0.25 µg/mL,10.1 days,6.7 days,10 mg/kg,> 25 µg/mL,,
COc1cc(Cc2cnc(N)nc2N)cc(OC)c1OC [TRIMETHOPRIM],< 0.25 µg/mL,< 0.25 µg/mL,< 0.25 µg/mL,,,< 0.25 µg/mL,,,< 0.25 µg/mL,,,,> 25 µg/mL,> 25 µg/mL,
Nc1nc(N)c2c(Cl)c(S(=O)(=O)c3ccc4ccccc4c3)ccc2n1,> 25 µg/mL,> 25 µg/mL,> 25 µg/mL,4.7 days,7.1 days,> 25 µg/mL,,0.7 days,< 0.25 µg/mL,,,5 mg/kg,> 25 µg/mL,> 25 µg/mL,MST (Plasmodium berghei [16]): 13.3 days; MST (Plasmodium berghei [17]): 11.5 days
CN(C)c1ccc(Sc2ccc3nc(N)nc(N)c3c2)cc1,,,,,,,,,,,,,,,Activity (Plasmodium falciparum [14]): 2.5 mg/kg; Activity (Plasmodium gallinaceum [11]): 0.9 mg/kg; fold change (FC) (Plasmodium gallinaceum [12]): 0; Activity (Plasmodium falciparum [15]): 1.25 mg/kg
Nc1nc(N)c2cc(S(=O)(=O)c3ccccc3)ccc2n1,,,,12.1 days,12.6 days,,0.3 days,7.7 days,,5.1 days,0.3 days,160 mg/kg,,,
Cc1cc(S(=O)(=O)c2ccc3nc(N)nc(N)c3c2)ccc1Br,,,,5.9 days,10.5 days,,,1.5 days,,0.5 days,,80 mg/kg,,,MST (Plasmodium berghei [16]): 18.9 days; MST (Plasmodium berghei [17]): 17.4 days
Nc1nc(N)c2cc([S+]([O-])c3ccc(Cl)c(Cl)c3)ccc2n1 (stereo unspecified),> 25 µg/mL,> 25 µg/mL,> 25 µg/mL,21.9 days,,> 25 µg/mL,4.1 days,15.9 days,< 0.25 µg/mL,8.7 days,7.9 days,10 mg/kg,> 25 µg/mL,,MST (Plasmodium berghei [2]): 1.1 days
Nc1nc(N)c2c(Cl)c([S+]([O-])c3ccccc3)ccc2n1 (stereo unspecified),,,,12.9 days,17.9 days,,,8.5 days,,,,640 mg/kg,,,
Nc1nc(N)c2c(Cl)c([S+]([O-])c3ccc(F)cc3)ccc2n1 (stereo unspecified),< 0.25 µg/mL,< 0.25 µg/mL,< 0.25 µg/mL,20.9 days,27.9 days,1 µg/mL,,4.1 days,< 0.25 µg/mL,,,40 mg/kg,> 25 µg/mL,2.5 µg/mL,
Nc1nc(N)c2c(Cl)c(S(=O)(=O)c3ccccc3)ccc2n1,2 µg/mL,2 µg/mL,2 µg/mL,22.4 days,,2 µg/mL,,11.9 days,< 0.25 µg/mL,,,640 mg/kg,> 25 µg/mL,> 25 µg/mL,
Nc1nc(N)c2cc([S+]([O-])c3cccc4ccccc34)ccc2n1 (stereo unspecified),> 25 µg/mL,> 25 µg/mL,> 25 µg/mL,7.9 days,13.7 days,> 25 µg/mL,,1.9 days,> 25 µg/mL,1.1 days,,80 mg/kg,> 25 µg/mL,,MST (Plasmodium berghei [16]): 16.4 days; MST (Plasmodium berghei [17]): 15.2 days
Nc1nc(N)c2cc(S(=O)(=O)c3cccc(C(F)(F)F)c3)ccc2n1,1.5 µg/mL,> 25 µg/mL,> 25 µg/mL,,,2 µg/mL,1.5 days,13.9 days,0.25 µg/mL,11.6 days,7.7 days,40 mg/kg,> 25 µg/mL,25 µg/mL,MST (Plasmodium berghei [2]): 0.5 days; Activity (Plasmodium falciparum [14]): 1.56 mg/kg; Activity (Plasmodium falciparum [15]): 0.39 mg/kg
Nc1nc(N)c2cc(S(=O)(=O)c3cccc4ccccc34)ccc2n1,> 25 µg/mL,> 25 µg/mL,> 25 µg/mL,3.5 days,5.5 days,> 25 µg/mL,,2.9 days,> 25 µg/mL,0.7 days,,80 mg/kg,> 25 µg/mL,> 25 µg/mL,MST (Plasmodium berghei [16]): 14.4 days; MST (Plasmodium berghei [17]): 14.3 days
Nc1nc(N)c2c(Cl)c([S+]([O-])c3cccc(C(F)(F)F)c3)ccc2n1 (stereo unspecified),,,,,1.1 days,,,0.5 days,,,,40 mg/kg,,,MST (Plasmodium berghei [16]): 1.5 days
Nc1nc(N)c2cc(S(=O)(=O)c3ccc(F)cc3)ccc2n1,,,,,,,6.9 days,,,12.9 days,13.6 days,20 mg/kg,,,MST (Plasmodium berghei [2]): 4.1 days; Activity (Plasmodium gallinaceum [11]): 0.6 mg/kg; fold change (FC) (Plasmodium gallinaceum [12]): 3
Nc1nc(N)c2cc([S+]([O-])c3ccc4ccccc4c3)ccc2n1 (stereo unspecified),< 0.25 µg/mL,2.5 µg/mL,< 0.25 µg/mL,,,< 0.25 µg/mL,10.9 days,,< 0.25 µg/mL,31.9 days,14.2 days,20 mg/kg,> 25 µg/mL,,MST (Plasmodium berghei [2]): 6.7 days; Activity (Plasmodium falciparum [14]): 0.78 mg/kg; Activity (Plasmodium gallinaceum [11]): 0.1 mg/kg; fold change (FC) (Plasmodium gallinaceum [12]): 0; Activity (Plasmodium falciparum [15]): 0.39 mg/kg
Nc1nc(N)c2c(Cl)c(S(=O)(=O)c3ccc(F)cc3)ccc2n1,2 µg/mL,> 25 µg/mL,10 µg/mL,13.4 days,26.9 days,> 25 µg/mL,0.5 days,9.7 days,< 0.25 µg/mL,9.3 days,4.1 days,40 mg/kg,> 25 µg/mL,> 25 µg/mL,MST (Plasmodium berghei [2]): 0.5 days
Nc1nc(N)c2c(Cl)c(S(=O)(=O)c3cccc(C(F)(F)F)c3)ccc2n1,> 25 µg/mL,> 25 µg/mL,> 25 µg/mL,0.7 days,1.1 days,> 25 µg/mL,,0.7 days,< 0.25 µg/mL,0.5 days,,40 mg/kg,> 25 µg/mL,> 25 µg/mL,MST (Plasmodium berghei [16]): 4.7 days; MST (Plasmodium berghei [17]): 3.7 days
Nc1nc(N)c2cc(Sc3ccc4ccccc4c3)ccc2n1,,,,,,,,,,,,,,,Activity (Plasmodium falciparum [14]): 3.125 mg/kg; Activity (Plasmodium gallinaceum [11]): <1.6 mg/kg; fold change (FC) (Plasmodium gallinaceum [12]): 0; Activity (Plasmodium falciparum [15]): 1.56 mg/kg
Nc1nc(N)c2c(Cl)c([S+]([O-])c3ccccc3Cl)ccc2n1 (stereo unspecified),2 µg/mL,> 25 µg/mL,> 25 µg/mL,,,> 25 µg/mL,,8.6 days,< 0.25 µg/mL,,,40 mg/kg,> 25 µg/mL,> 25 µg/mL,

# — ChEMBL document CHEMBL3244272, “Folate antagonists. 15. 2,3-Diamino-6-(2-naphthylsulfonyl)quinazoline and related 2,4-diamino-6-[(phenyl and naphthyl)sulfinyl and sulfonyl]quinazolines, a potent new class of antimetabolites with phenomenal antimalarial activity” (J Med Chem, 1979)
